For two compounds, IC50 results are on record in ChEMBL document CHEMBL5727392, “2,4-disubstituted pyrimidines as CDK inhibitors” (2019).

For the test, the target named is Cyclin-dependent kinase 4 (Homo sapiens, UniProt P11802). As to the kind of experiment: Caliper Mobility Shift Assay: CDK4: The test compound was dissolved in DMSO and diluted with a kinase buffer solution (20 mM HEPES-pH 7.5, 0.01% Triton X-100, 10 mM MgCl2, 2 mM DTT) and 5 μL of compound at 5-fold final concentration of reaction dissolved in 10% DMSO was added in a 384-well plate. The compound-free control well was 5 μL of 10% DMSO, and the no-activity control well was 5 μL of kinase buffer. 10 μL of a 2.5-fold diluted CDK4 enzyme solution (GST-CDK4(1-303 end)) was added and incubated at room temperature for 10 min, and then 10 μL of the 2.5-fold diluted substrate solution Peptide FAM-P8 was added. The reaction was stopped by adding 25 μL of stop solution after incubation at 28° C. for 3 h, and the conversion rate data was read on a Caliper EZ Reader II (Caliper Life Sciences) and the conversion rate was converted to inhibition rate data according to above method.
Cyclin-dependent kinase 4, sequence (P11802 whole entry): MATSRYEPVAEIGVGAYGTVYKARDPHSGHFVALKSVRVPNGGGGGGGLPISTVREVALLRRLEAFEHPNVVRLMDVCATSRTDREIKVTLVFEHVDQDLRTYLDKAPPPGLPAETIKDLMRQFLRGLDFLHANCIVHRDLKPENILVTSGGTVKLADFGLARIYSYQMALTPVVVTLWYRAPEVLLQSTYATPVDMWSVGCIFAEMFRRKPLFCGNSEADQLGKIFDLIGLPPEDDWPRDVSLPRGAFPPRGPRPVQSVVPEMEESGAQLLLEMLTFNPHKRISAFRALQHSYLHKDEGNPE

A word on the IC50: it is the concentration that inhibits the measured activity by half. On to `CC(C)c1c2ccc(-c3nc(Nc4ccc(N5CCNCC5)cn4)ncc3F)c(Cl)c2nn1C`, for which the IC50 was under 20 nM.

In the case of `CC(C)c1c(C#N)n(C2CC2)c2ccc(-c3nc(Nc4ccc(CN5CCN(C6CC6)CC5)cn4)ncc3F)cc12`, the IC50 was under 20 nM.
